Experimental data taken from patent publication US9422285B2, “Substituted pyrazolo[1,5-A]-pyridine-3-carboxamides and use thereof” (Bayer Pharma Aktiengesellschaft, priority 2014, dated 2016).

Tests used:
[1] = target: T1, recombinant guanylate cyclase reporter cell line (Rattus norvegicus, UniProt P19686+P20595); assay: Effect on a recombinant guanylate cyclase reporter cell line (B-2); format: cell-based; details: in some cases mean values for individual determinations
T1 construct: expressed in transfected cells
T1 sequence (P19686 1-690): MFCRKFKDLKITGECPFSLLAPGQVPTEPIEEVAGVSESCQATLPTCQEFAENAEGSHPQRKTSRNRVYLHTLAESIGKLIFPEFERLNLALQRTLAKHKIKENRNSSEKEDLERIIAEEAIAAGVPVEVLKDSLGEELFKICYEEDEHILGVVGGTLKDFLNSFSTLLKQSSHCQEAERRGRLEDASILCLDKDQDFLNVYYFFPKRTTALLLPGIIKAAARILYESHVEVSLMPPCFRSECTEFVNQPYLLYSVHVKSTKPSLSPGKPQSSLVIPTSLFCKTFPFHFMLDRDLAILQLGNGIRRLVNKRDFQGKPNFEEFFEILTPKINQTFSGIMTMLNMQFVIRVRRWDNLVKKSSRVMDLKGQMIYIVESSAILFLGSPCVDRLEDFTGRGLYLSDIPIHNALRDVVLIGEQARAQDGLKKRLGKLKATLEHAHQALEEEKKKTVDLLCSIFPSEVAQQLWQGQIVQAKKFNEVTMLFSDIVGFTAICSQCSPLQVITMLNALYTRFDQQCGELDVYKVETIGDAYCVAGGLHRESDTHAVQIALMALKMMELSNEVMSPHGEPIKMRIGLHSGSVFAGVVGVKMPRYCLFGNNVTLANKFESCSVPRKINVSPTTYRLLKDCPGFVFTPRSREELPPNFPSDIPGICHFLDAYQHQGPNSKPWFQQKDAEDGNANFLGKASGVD
T1 sequence (P20595 1-619): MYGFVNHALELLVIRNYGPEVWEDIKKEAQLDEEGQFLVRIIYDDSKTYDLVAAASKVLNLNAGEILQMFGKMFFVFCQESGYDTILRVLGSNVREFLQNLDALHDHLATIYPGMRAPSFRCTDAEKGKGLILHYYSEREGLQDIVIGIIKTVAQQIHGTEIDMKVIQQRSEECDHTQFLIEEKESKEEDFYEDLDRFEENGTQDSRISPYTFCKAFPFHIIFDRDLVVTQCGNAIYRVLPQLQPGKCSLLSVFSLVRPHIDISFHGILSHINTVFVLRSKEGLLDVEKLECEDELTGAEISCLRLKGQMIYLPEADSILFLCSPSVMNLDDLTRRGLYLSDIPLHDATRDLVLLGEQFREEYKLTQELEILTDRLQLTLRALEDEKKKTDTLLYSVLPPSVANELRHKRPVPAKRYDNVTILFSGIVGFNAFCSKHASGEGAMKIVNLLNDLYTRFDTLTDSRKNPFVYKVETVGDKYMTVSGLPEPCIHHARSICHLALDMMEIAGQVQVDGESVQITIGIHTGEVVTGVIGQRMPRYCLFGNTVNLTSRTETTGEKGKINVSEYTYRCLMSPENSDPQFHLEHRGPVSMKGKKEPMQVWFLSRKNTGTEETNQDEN
Method: B-2. Effect on a Recombinant Guanylate Cyclase Reporter Cell Line
The cellular effect of the inventive compounds is determined using a recombinant guanylate cyclase reporter cell line, as described in F. Wunder et al., Anal. Biochem. 339, 104-112 (2005).
Representative MEC values (MEC=minimum effective concentration) for the inventive compounds are shown in the table below (in some cases as mean values for individual determinations): […]

[2] = Pharmacokinetic parameters following intravenous administration in rats (B-6); format: in vivo, male Wistar rats; details: for MRT / half-life: male, Wistar, rat, plasma; for MRT: mean residence time; for half-life: terminal half-life
Source text: • Klaus Witte, Kai Hu, Johanna Swiatek, Claudia Müssig, Georg Ertl and Bjorn Lemmer: Experimental heart failure in rats: effects on cardiovascular circadian rhythms and on myocardial β-adrenergic signaling. Cardiovasc Res 47 (2): […], 2000; Kozo Okamoto: Spontaneous hypertension in rats. Int Rev Exp Pathol 7: 227-270, 1969; Maarten van den Buuse: Circadian Rhythms of Blood Pressure, Heart Rate, and Locomotor Activity in Spontaneously Hypertensive Rats as Measured With Radio-Telemetry. Physiology & Behavior 55(4): 783-787, 1994 B-6. Determination of Pharmacokinetic Parameters Following Intravenous and Oral Administration
The pharmacokinetic parameters of the inventive compounds are determined in male CD-1 mice, male Wistar rats and female beagles. Intravenous administration in the case of mice and rats is effected by means of a species-specific plasma/DMSO formulation, and in the case of dogs by means of a water/PEG400/ethanol formulation. In all species, oral administration of the dissolved substance is performed via gavage, based on a water/PEG400/ethanol formulation. The removal of blood from rats is simplified by inserting a silicone catheter into the right Vena jugularis externa prior to substance administration. The operation is effected at least one day prior to the experiment with isofluran anaesthesia and administration of an analgesic (atropine/rimadyl (3/1) 0.1 ml s.c.). The blood is taken (generally more than 10 time points) within a time window including terminal time points of at least 24 to a maximum of 72 hours after substance administration. The blood is removed into heparinized tubes. The blood plasma is then obtained by centrifugation; if required, it can be stored at −20° C. until further processing.
An internal standard (which may also be a chemically unrelated substance) is added to the samples of the inventive compounds, calibration samples and qualifiers, and there follows protein precipitation by means of acetonitrile in excess. Addition of a buffer solution matched to the LC conditions, and subsequent vortexing, is followed by centrifugation at 1000 g. The supernatant is analysed by means of LC-MS/MS using C18 reversed-phase columns and variable mobile phase mixtures. The substances are quantified via the peak heights or areas from extracted ion chromatograms of specific selected ion monitoring experiments.
The plasma concentration/time plots determined are used to calculate the pharmacokinetic parameters such as AUC, Cmax, t1/2 (terminal half-life), F (bioavailability), MRT (mean residence time) and CL (clearance), by means of a validated pharmacokinetic calculation program.
Since the substance quantification is performed in plasma, it is necessary to determine the blood/plasma distribution of the substance in order to be able to adjust the pharmacokinetic parameters correspondingly. For this purpose, a defined amount of substance is incubated in heparinized whole blood of the species in question in a rocking roller mixer for 20 min. After centrifugation at 1000 g, the plasma concentration is measured (by means of LC-MS/MS; see above) and determined by calculating the ratio of the Cblood/Cplasma value.

SMILES | MEC (minimum effective concentration) [1] | AUCnormal [2] | CLblood [2] | MRT [2] | half-life [2]
CCCC(C)(N)CNC(=O)c1c(C)nn2c(OCc3c(F)cccc3F)cc(C)cc12 (single isomer, unassigned) [Example 39, ent-N-(2-Amino-2-methylpentyl)-7-[(2,6-difluorobenzyl)oxy]-2,5-dimethylpyrazolo[1,5-a]pyridine-3-carboxamide] | 0.3 µM | 0.53 kg·h/L | 41 mL/min/kg | 7.8 h | 6.2 h
Cc1cc(OCc2c(F)cccc2F)n2nc(C)c(C(=O)NCC(C)(N)CCC(F)(F)F)c2c1 (single isomer, unassigned) [Example 43, ent-N-(2-Amino-5,5,5-trifluoro-2-methylpentyl)-7-[(2,6-difluorobenzyl)oxy]-2,5-dimethylpyrazolo[1,5-a]pyridine-3-carboxamide] | 0.1 µM | 0.49 kg·h/L | 42.7 mL/min/kg | 7.4 h | 5.9 h
CCCC(C)(N)CNC(=O)c1c(C2CC2)nn2c(OCc3c(F)cccc3F)cc(C)cc12 (single isomer, unassigned) [Example 55, ent-N-(2-Amino-2-methylpentyl)-2-cyclopropyl-7-[(2,6-difluorobenzyl)oxy]-5-methylpyrazolo[1,5-a]pyridine-3-carboxamide] | 0.1 µM | 0.37 kg·h/L | 46 mL/min/kg | 3.5 h | 2.6 h

Results, then the compound that gave them:

MEC (minimum effective concentration) [1] | AUCnormal [2] | CLblood [2] | MRT [2] | half-life [2] | SMILES
0.1 µM | 0.45 kg·h/L | 36.5 mL/min/kg | 4.3 h | 3.2 h | Cc1cc(OCc2c(F)ccc(F)c2F)n2nc(C)c(C(=O)NCC(C)(N)CCC(F)(F)F)c2c1 (single isomer, unassigned; enantiomer b) [Example 168, ent-N-(2-Amino-5,5,5-trifluoro-2-methylpentyl)-2,5-dimethyl-7-[(2,3,6-trifluorobenzyl)oxy]pyrazolo[1,5-a]pyridine-3-carboxamide (Enantiomer B)]
0.2 µM | 0.44 kg·h/L | 36.8 mL/min/kg | 4.9 h | 4 h | CCCC(C)(N)CNC(=O)c1c(C2CC2)nn2c(OCc3c(F)ccc(F)c3F)cc(C)cc12 (single isomer, unassigned; enantiomer b) [Example 169, ent-N-(2-Amino-2-methylpentyl)-2-cyclopropyl-5-methyl-7-[(2,3,6-trifluorobenzyl)oxy]pyrazolo[1,5-a]pyridine-3-carboxamide (Enantiomer B)]
0.1 µM | 0.32 kg·h/L | 48.7 mL/min/kg | 3.4 h | 2.6 h | Cc1cc(OCc2c(F)ccc(F)c2F)n2nc(C3CC3)c(C(=O)NCC(C)(N)CCC(F)(F)F)c2c1 (single isomer, unassigned; enantiomer b) [Example 170, ent-N-(2-Amino-5,5,5-trifluoro-2-methylpentyl)-2-cyclopropyl-5-methyl-7-[(2,3,6-trifluorobenzyl)oxy]pyrazolo[1,5-a]pyridine-3-carboxamide (Enantiomer B)]
